# In patent US20180216113A1, “METHODS FOR REDUCING PROTEOTOXICITY” (priority 2015, published 2018):
# Columns and labels:
# hsp-16.2p::GFP = hsp-16.2p::GFP reporter induction (cytosolic HSR / MCSR); format: in vivo, C. elegans; conditions: for hsp-6 RNAi-induced MCSR (hsp-16.2p::GFP): ceramide fed worms, 100μg/ml, 48 hours, on hsp-6 RNAi
# Description: (§1) Bacterial feeding of RNAi experiments was conducted during adulthood to exclude target genes' function during developmental stages. Synchronized eggs were harvested by bleaching and nematodes were grown on plates with E. coli OP50 until they reached early adulthood before they were transferred to RNAi plates. Day 1 adult worms were then grown on the RNAi plates with E. coli HT115 that carried the RNAi construct for 3 days at 20° C. Worms were imaged using a fluorescent microscope for green fluorescent protein (GFP) induction or applied to COPAS Biosorter (Union Biometrica) to quantify the level of GFP induction. The temperature-sensitive sterile strains were grown at 15° C. until they were gravid adults. Then, the cohorts were shifted to 25° C. Day 1 adult worms were transferred to RNAi plates for 2 days before images were taken. For the double RNAi treatment, E. coli carrying the indicated RNAi constructs are mixed 1:1 ratio.
# (§2) Lipids, Inc. Lyophilized lipids were dissolved in Methanol with sonication. Ceramides were diluted to 100μg/ml and spotted on top of the OP50 plates or RNAi plates. Worms were transferred to Ceramide-spotted plates at L4 stage and the images were taken after 48 hours. Cardiolipin was fed to bacteria for 2-4 hours (OP50 or RNAi construct-carrying HT115) with final concentration of 100μg/ml. Then the bacteria were spotted on plates before transferring the worms. L4 worms were then transferred to the cardiolipin spotted plates and images were taken after 48 hours.
# Worms were grown up to day 1 adults and underwent heat shock at 34° C. for 2 hours, then recovered at 20° C. for overnight before taking images. For the Nile Red Staining experiment, worms were recovered for 48 hours.
# (§3) Perhexiline (Sigma) powder was dissolved in dimethylsulfoxide (DMSO) (100 mM). The stock was diluted to 1 mM and 100 μl was spotted on the E. coli OP50 plates or HT115 RNAi plates and dried before transferring the worms. Worms were transferred to new perhexiline plates every other day for three to four days until harvested for following experiment. […]
# hsp-6p::GFP = hsp-6p::GFP / hsp-60p::GFP reporter induction (UPRmt); format: in vivo, C. elegans; conditions: for UPRmt caused by cco-1 knockdown: ceramide fed reporter worms
# Description: as §1, §2
# (§4) Perhexiline (Sigma) powder was dissolved in dimethylsulfoxide (DMSO) (100 mM). The stock was diluted to 1 mM and 100 μl was spotted on the E. coli OP50 plates or HT115 RNAi plates and dried before transferring the worms. Worms were transferred to new perhexiline plates every other day for three to four days until harvested for following experiment. For the perhexiline treatment with multiple numbers of RNAi (e.g., FIG. 4C), worms were transferred to the S-media containing HT115 RNAi bacteria, 100 μM of perhexiline and 1 mM of IPTG in a 96-well plate for 48 hrs.
# C. elegans [1] = experiment: Triglyceride quantification in worms; format: in vivo; conditions: perhexiline treated worms
# Description: (§5) To quantify triglyceride content, a Triglyceride quantification kit (Bio Vision) was used according to the manufacturer's protocol. Briefly, worms were harvested from plates and washed with M9 three times. Worms were homogenized with 5% NP-40 in water using a glass dounce homogenizer to extract mostly the intestinal tissues by checking the lysates under a dissecting microscope. Worms looked like empty shells once the intestinal tissues were extracted out. The samples were heated slowly at 90° C. for 5 minutes and cooled down to room temperature. Heating was repeated once more prior to centrifugation of the samples for 2 minutes to bring down debris. Supernatant was removed and mixed with enzymes provided in the kit according to the manufacturer's manual. Measurement was done using microplate reader M1000 (TECAN) at Ex/Em=535/590 nm. Calculations were done after subtracting 0 standard readings as a background.
# Sample Triglyceride control (C)=B/V×D nmol/μl or mM
# as §3
# C. elegans [2] = experiment: Oxygen consumption rate of whole worms (Seahorse); format: in vivo; conditions: perhexiline treatment of hsp-6 RNAi animals
# Description: Oxygen consumption of whole worms was measured using the Seahorse XF96 (Seahorse Bioscience). Worms were washed off from plates with M9 to remove residual bacteria. Then, 50 worms (10 worms/well/100 μl) were transferred to the microplate. 50 μl of M9 was added to the wells and the oxygen consumption rate was measured. All experiments were repeated at least three times.
# [3] = test system: aggregated PolyQ proteins (Q35::YFP); experiment: Filter trap assay of aggregated PolyQ proteins in worms; format: in vivo, C. elegans; conditions: AM140 worms
# Description: (§6) 100μg of protein samples were applied on to cellulose acetate membrane with 0.22 μm pore size (Schlechtes+Schule), assembled in vacuum slot blotter (Bio-Dot, Bio-Rad). Membrane was washed with 0.2% SDS five times on the blotter and subjected to antibody incubation for detecting aggregated protein retained on the membrane. Briefly, membrane was incubated with anti-GFP antibody (1:3000 dilution in 5% milk in PBS, Roche) overnight in a cold room. Membrane was washed with PBST (PBST with 0.05% Tween-20) for three times, then incubated with secondary antibody (donkey anti-mouse antibody conjugated with HRP, 1:5000 dilution in 5% milk in PBS, Jackson Immuno Research). Membranes were washed with PBST three times and exposed to film after applying ECL solutions (Pierce) to visualize the protein bands.
# as §4
# [4] = test system: polyglutamine repeats in Huntingtin exon 1 (Q78); experiment: Filter trap assay of polyQ aggregates in human primary fibroblasts; format: cell-based; conditions: perhexiline 400 nM, 48 hours
# Description: The following siRNAs were tested for depleting the indicated genes in the human primary fibroblasts or HEK cells: hspa9 siRNA (#1 and #2), accl siRNA (#1 and #2), fas siRNA (#1 and #2) (Ambion). Scrambled siRNA with no known mammalian homology (non-targeting siRNA #1 (Ambion) was used as negative control. Double siRNA treatment was performed by mixing two different siRNAs indicated at 1:1 ratio. Cells were transfected with the siRNAs using JetPrime according to the manufacturer's manual and then harvested after 48 h. Control vector-transfected cells were used as controls for all the experiments.
# as §6, with “Membranes were washed with PBST three times and exposed to film after applying ECL solutions (Pierce) to visualize the protein bands.” left out
# cytosolic HSP70 = experiment: Western blotting of cytosolic HSP70 in human primary fibroblasts; format: cell-based; conditions: human primary fibroblasts (GFP expressing cells)
# Description: The following siRNAs were tested for depleting the indicated genes in the human primary fibroblasts or HEK cells: hspa9 siRNA (#1 and #2), accl siRNA (#1 and #2), fas siRNA (#1 and #2) (Ambion). Scrambled siRNA with no known mammalian homology (non-targeting siRNA #1 (Ambion) was used as negative control. Double siRNA treatment was performed by mixing two different siRNAs indicated at 1:1 ratio. Cells were transfected with the siRNAs using JetPrime according to the manufacturer's manual and then harvested after 48 h. Control vector-transfected cells were used as controls for all the experiments. For SDS-PAGE, 20-40μg of protein samples were loaded on 4-12% bis-tris SDS gel (Invitrogen). The gel was transferred to nitrocellulose membrane (GE) using XCell II blot module (Invitrogen). Then, membranes were incubated with antibodies and exposed to film as described above. mtHSP70 (Abcam), α-Tubulin (Sigma), GFP (Roche), and cytosolic HSP70 (HSP70/HSP72, Enzo life) were used to probe the membrane. The western blot bands' intensity was measured using ImageJ software. For the cell culture experiments, cells were grown to 90% confluent and washed with PBS. Indicated concentrations of perhexiline were diluted in the cell growth media with serum and replaced in cell culture dishes. After 48 hours, cells were washed with PBS and harvested for following experiments.
# [5] = test system: human primary fibroblasts; experiment: Triglyceride content of human primary fibroblasts; format: cell-based; conditions: human primary fibroblasts (GFP expressing cells) after perhexiline treatment
# Description: as §5
# For the mammalian cell culture samples, cells were washed with cold PBS and homogenized with 5% NP-40 in water using a syringe with 22 G needle, followed by the procedure shown above. All experiments were done with three biological repeats.
# For the cell culture experiments, cells were grown to 90% confluent and washed with PBS. Indicated concentrations of perhexiline were diluted in the cell growth media with serum and replaced in cell culture dishes. […]
smiles,measurement,setting,value
CCCCCCCCCCCCC/C=C/[C@@H](O)[C@H](CO)NC(=O)CCCCCCCCCCCCCCCCCCC [C20 ceramide],hsp-6 RNAi-induced MCSR (hsp-16.2p::GFP),hsp-16.2p::GFP,partially block
same,UPRmt caused by cco-1 knockdown,hsp-6p::GFP,did not affect
CCCCCCCCCCCCC/C=C/[C@@H](O)[C@H](CO)NC(=O)CCCCCCCCCCCCCCCCCCCCC [C22 ceramide],hsp-6 RNAi-induced MCSR (hsp-16.2p::GFP),hsp-16.2p::GFP,completely inhibited
same,UPRmt caused by cco-1 knockdown,hsp-6p::GFP,did not affect
"C1CCC(C(CC2CCCCN2)C2CCCCC2)CC1 (stereo not drawn) [perhexiline, 2-(2,2-dicyclohexylethyl)piperidine]",cytosolic hsp-16.2 expression,hsp-16.2p::GFP; perhexiline treated hsp-16.2p::GFP;CF512 reporter worms,specifically induced
same,"induction of UPRmt (hsp-6p::GFP, hsp-60p::GFP)",hsp-6p::GFP; perhexiline treated reporter worms,moderately induced
same,fat accumulation (triglyceride content),C. elegans [1],increased
same,overall oxygen consumption rate,C. elegans [2],did not further reduce
same,levels of aggregated PolyQ proteins,[3],decreased levels
same,polyglutamine protein aggregation,[4],reduced
same,expression of cytosolic HSP70,cytosolic HSP70,induce expression
same,triglyceride levels,[5],increased
